Measured values published in patent publication US9309263B2, “Fused multi-cyclic sulfone compounds as inhibitors of beta-secretase and methods of use thereof” (AMGEN INC., priority 2013, dated 2016).
Where two headings read alike, the source gives them in different places.

How the values were obtained:
[1] = system: Aβ 40 in conditioned medium of cells stably expressing Amyloid Precursor Protein (APP); test: In vitro BACE cell-based assay (Aβ 40 sandwich ELISA); settings: Homo sapiens, HEK293
How it was run: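 Aβ40 in conditioned medium measured by pAb40/biotin-6E10 sandwich ELISA with time-resolved europium fluorescence, after 24 h exposure of stable APP cells to compounds (10-point series starting 100 μM or 10 μM; 0.1% DMSO). IC50 fitted from percent of control against concentration.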

[2] = target: Beta Secretase enzyme (BACE) (Homo sapiens, UniProt P56817); test: In vitro enzymatic BACE FRET assay; format: biochemical; settings: read-out: BACE1 FRET assay IC50
How it was run: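 Cleavage of a quenched 50 nM FRET peptide substrate, read as fluorescence (excitation 488 nm, […]) after 1 h and Tris quench to neutrality. Buffer: 0.05 M acetate pH 4.2 with 10% DMSO and 100 uM genapol. Inhibitor dilutions were pre-incubated 1 h with 0.2 nM enzyme.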

Cathepsin D (Cat D) = Cathepsin D (Cat D) (Homo sapiens, UniProt P07339); test: In vitro enzymatic Cathepsin D (Cat D) FRET assay; format: biochemical
How it was run: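 FRET peptide substrate (20 nM) is cleaved by CHO-derived recombinant enzyme (9 nM) for 1 h after a 1 h inhibitor pre-incubation, at pH 3.5 in citrate buffer with 5 mM CHAPS and 10% DMSO. Tris addition ends the reaction; fluorescence measured at 500 nm excitation, 580 nm emission.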

[3] = average IC50, HEK cell assay, Aβ 40 readout
[4] = average IC50, in vitro enzymatic BACE FRET assay
[5] = Cathepsin D FRET assay, read-out: CatD IC50
[6] = text summary referring to data in Table 2

Sequence of Cathepsin D (Cat D) (P07339 65-412, species assumed): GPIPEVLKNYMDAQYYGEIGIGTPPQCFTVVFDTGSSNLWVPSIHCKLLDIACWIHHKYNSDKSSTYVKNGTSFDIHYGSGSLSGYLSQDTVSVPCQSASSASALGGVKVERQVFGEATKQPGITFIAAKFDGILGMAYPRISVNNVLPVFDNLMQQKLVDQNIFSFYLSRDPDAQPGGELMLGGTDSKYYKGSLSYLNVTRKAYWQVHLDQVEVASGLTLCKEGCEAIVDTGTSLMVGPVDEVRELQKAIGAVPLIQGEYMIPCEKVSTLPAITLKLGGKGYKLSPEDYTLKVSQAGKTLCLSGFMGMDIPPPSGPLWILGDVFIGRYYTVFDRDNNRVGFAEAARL
Sequence of Beta Secretase enzyme (BACE) (P56817 46-501): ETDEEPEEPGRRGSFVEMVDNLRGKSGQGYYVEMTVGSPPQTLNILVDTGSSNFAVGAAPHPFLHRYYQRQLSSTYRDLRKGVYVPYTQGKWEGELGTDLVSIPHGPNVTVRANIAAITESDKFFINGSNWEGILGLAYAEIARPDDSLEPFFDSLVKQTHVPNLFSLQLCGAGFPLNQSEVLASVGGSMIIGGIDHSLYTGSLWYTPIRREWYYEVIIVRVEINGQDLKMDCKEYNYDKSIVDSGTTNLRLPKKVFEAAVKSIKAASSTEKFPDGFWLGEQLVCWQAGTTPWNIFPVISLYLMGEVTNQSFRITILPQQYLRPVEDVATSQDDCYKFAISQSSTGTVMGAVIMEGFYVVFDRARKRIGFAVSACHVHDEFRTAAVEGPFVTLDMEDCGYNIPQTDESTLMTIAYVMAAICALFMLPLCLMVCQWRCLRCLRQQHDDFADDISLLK

| IC50 [1, 3] | IC50 [2, 4] | IC50 (Cathepsin D (Cat D); [5]) | IC50 (Cathepsin D (Cat D); [6]) | IC50 ([1]; HEK cell, average IC50) | IC50 ([2]; average IC50) | IC50 (Cathepsin D (Cat D); read-out: CatD IC50) | IC50 ([1]; HEK cells, average IC50) | SMILES |
| --- | --- | --- | --- | --- | --- | --- | --- | --- |
| 0.023 µM | 0.018 µM | 143 µM | – | – | – | – | – | Cc1cc(C(F)(F)F)cnc1C(=O)Nc1ccc2c(c1)[C@@]1(C)N=C(N)C(C)(C)S(=O)(=O)[C@H]1CC(C)(C)O2 [Example 103, N-((4aS,11bR)-2-amino-3,3,6,6,11b-pentamethyl-4,4-dioxido-4a,5,6,11b-tetrahydro-3H-[1]benzoxepino[4,5-b][1,4]thiazin-10-yl)-3-methyl-5-(trifluoromethyl)-2-pyridinecarboxamide] |
| – | – | – | – | – | 0.006 µM | 1070 µM | 0.004 µM | CC1(C)C(N)=N[C@]2(C)c3cc(NC(=O)c4ccc(C(F)(F)F)cn4)ccc3OCC[C@H]2S1(=O)=O [Example 165, N-((4aR,11bR)-2-amino-3,3,11b-trimethyl-4,4-dioxido-4a,5,6,11b-tetrahydro-3H-[1]benzoxepino[4,5-b][1,4]thiazin-10-yl)-5-(trifluoromethyl)-2-pyridinecarboxamide] |
| 0.002 µM | 0.002 µM | 207 µM | – | – | – | – | – | Cc1cc(OC(F)F)cnc1C(=O)Nc1ccc2c(c1)[C@@]1(C)N=C(N)C(C)(C)S(=O)(=O)[C@@H]1CCS2 [Example 118] |
| 0.069 µM | 0.022 µM | 974 µM | – | – | – | – | – | CC1(C)C(N)=N[C@]2(C)c3cc(NC(=O)c4ccc(OCC(F)(F)F)cn4)ccc3OCC[C@H]2S1(=O)=O [Example 97, N-((4aR,11bR)-2-amino-3,3,11b-trimethyl-4,4-dioxido-4a,5,6,11b-tetrahydro-3H-[1]benzoxepino[4,5-b][1,4]thiazin-10-yl)-5-(2,2,2-trifluoroethoxy)-2-pyridinecarboxamide] |
| 0.009 µM | 0.006 µM | 954 µM | > 800 µM | – | – | – | – | Cc1cc(C#CC2CC2)cnc1C(=O)Nc1ccc2c(c1)[C@@]1(C)N=C(N)C(C)(C)S(=O)(=O)[C@@H]1CCO2 [Example 83, N-((4aR,11bR)-2-amino-3,3,11b-trimethyl-4,4-dioxido-4a,5,6,11b-tetrahydro-3H-[1]benzoxepino[4,5-b][1,4]thiazin-10-yl)-5-(cyclopropylethynyl)-3-methyl-2-pyridinecarboxamide] |
| 0.008 µM | 0.006 µM | > 1.65 µM | – | – | – | – | – | Cc1cc(Cl)cnc1C(=O)Nc1ccc2c(c1)[C@@]1(C)N=C(N)C(C)(C)S(=O)(=O)[C@@H]1CCS2(=O)=O [Example 124, N-((4aR,11bR)-2-amino-3,3,11b-trimethyl-4,4,7,7-tetraoxido-4a,5,6,11b-tetrahydro-3H-benzo[6,7]thiepino[4,5-b][1,4]thiazin-10-yl)-5-chloro-3-methylpicolinamide] |
| 0.007 µM | 0.021 µM | > 400 µM | – | – | – | – | – | COc1cnc(C(=O)Nc2ccc3c(c2)[C@@]2(C)N=C(N)C(C)(C)S(=O)(=O)[C@@H]2CCO3)c(C)c1 [Example 158, N-((4aR,11bR)-2-amino-3,3,11b-trimethyl-4,4-dioxido-4a,5,6,11b-tetrahydro-3H-[1]benzoxepino[4,5-b][1,4]thiazin-10-yl)-5-methoxy-3-methyl-2-pyridinecarboxamide] |
| – | – | – | > 800 µM | 0.001 µM | 0.003 µM | 995 µM | – | Cc1cc(Cl)cnc1C(=O)Nc1ccc2c(c1)[C@@]1(C)N=C(N)C(C)(C)S(=O)(=O)[C@@]1(C)CCO2 [Example 26, N-((4aS,11bR)-2-amino-3,3,4a,11b-tetramethyl-4,4-dioxido-4a,5,6,11b-tetrahydro-3H-[1]benzoxepino[4,5-b][1,4]thiazin-10-yl)-5-chloro-3-methyl-2-pyridinecarboxamide] |
| – | – | – | – | – | 0.032 µM | 878 µM | 0.008 µM | COc1cnc(C(=O)Nc2ccc3c(c2)[C@@]2(C)N=C(N)C(C)(C)S(=O)(=O)[C@H]2CCO3)c(C)c1 [Example 161, N-((4aS,11bR)-2-amino-3,3,11b-trimethyl-4,4-dioxido-4a,5,6,11b-tetrahydro-3H-[1]benzoxepino[4,5-b][1,4]thiazin-10-yl)-5-methoxy-3-methyl-2-pyridinecarboxamide] |

Continued, compound first:

| SMILES | IC50 [1, 3] | IC50 [2, 4] | IC50 (Cathepsin D (Cat D); [5]) | IC50 (Cathepsin D (Cat D); [6]) | IC50 ([1]; HEK cell, average IC50) | IC50 ([2]; average IC50) | IC50 (Cathepsin D (Cat D); read-out: CatD IC50) | IC50 ([1]; HEK cells, average IC50) |
| --- | --- | --- | --- | --- | --- | --- | --- | --- |
| C#CCOc1ccc(C(=O)Nc2ccc3c(c2)[C@@]2(C)N=C(N)C(C)(C)S(=O)(=O)[C@@H]2C[C@H](C)O3)nc1 [Example 145, N-((4aR,6S,11bR)-2-amino-3,3,6,11b-tetramethyl-4,4-dioxido-4a,5,6,11b-tetrahydro-3H-[1]benzoxepino[4,5-b][1,4]thiazin-10-yl)-5-(2-propyn-1-yloxy)-2-pyridinecarboxamide] | 0.002 µM | 0.001 µM | 329 µM | – | – | – | – | – |
| COCc1ccc(C(=O)Nc2ccc3c(c2)[C@@]2(C)N=C(N)C(C)(C)S(=O)(=O)[C@@H]2CCO3)nc1 [Example 92, N-((4aR,11bR)-2-amino-3,3,11b-trimethyl-4,4-dioxido-4a,5,6,11b-tetrahydro-3H-[1]benzoxepino[4,5-b][1,4]thiazin-10-yl)-5-(methoxymethyl)-2-pyridinecarboxamide] | 0.026 µM | 0.122 µM | 3050 µM | > 1200 µM | – | – | – | – |
| Cc1cc(C#N)cnc1C(=O)Nc1cnc2c(c1)[C@@]1(C)N=C(N)C(C)(C)S(=O)(=O)[C@H]1CCO2 [Example 21, N-((4aS,11bR)-2-amino-3,3,11b-trimethyl-4,4-dioxido-4a,5,6,11b-tetrahydro-3H-pyrido[3′,2′:6,7]oxepino[4,5-b][1,4]thiazin-10-yl)-5-cyano-3-methyl-2-pyridinecarboxamide] | – | – | – | – | 0.026 µM | 0.007 µM | 1420 µM | – |
| Cc1cc(Cl)cnc1C(=O)Nc1ccc2c(c1)[C@@]1(C)N=C(N)C(C)(C)S(=O)(=O)[C@]1(C)CCO2 [Example 27, N-((4aR,11bR)-2-amino-3,3,4a,11b-tetramethyl-4,4-dioxido-4a,5,6,11b-tetrahydro-3H-[1]benzoxepino[4,5-b][1,4]thiazin-10-yl)-5-chloro-3-methyl-2-pyridinecarboxamide] | – | – | – | – | 0.264 µM | 0.15 µM | 553 µM | – |
| C[C@H]1C[C@@H]2[C@](C)(N=C(N)C(C)(C)S2(=O)=O)c2cc(Nc3nccc4nc(O)cnc34)ccc2O1 [Example 136, 5-(((4aR,6S,11bR)-2-amino-3,3,6,11b-tetramethyl-4,4-dioxido-4a,5,6,11b-tetrahydro-3H-[1]benzoxepino[4,5-b][1,4]thiazin-10-yl)amino)pyrido[3,4-b]pyrazin-2(1H)-one] | 0.016 µM | 0.025 µM | 247 µM | – | – | – | – | – |
| CC1(C)C(N)=N[C@]2(CF)c3cc(NC(=O)c4cnc(C(F)(F)F)cn4)ccc3OCC[C@@H]2S1(=O)=O [Example 120, N-((4aS,11bS)-2-amino-11b-(fluoromethyl)-3,3-dimethyl-4,4-dioxido-4a,5,6,11b-tetrahydro-3H-[1]benzoxepino[4,5-b][1,4]thiazin-10-yl)-5-(trifluoromethyl)-2-pyrazinecarboxamide] | 0.148 µM | 0.082 µM | 752 µM | – | – | – | – | – |
| COc1cnc2c(Nc3ccc4c(c3)[C@@]3(CF)N=C(N)C(C)(C)S(=O)(=O)[C@H]3CCO4)nccc2n1 [Example 155, (4aS,11bS)-11b-(fluoromethyl)-N^~10^~-(2-methoxypyrido[3,4-b]pyrazin-5-yl)-3,3-dimethyl-4a,5,6,11b-tetrahydro-3H-[1]benzoxepino[4,5-b][1,4]thiazine-2,10-diamine 4,4-dioxide] | 0.062 µM | 0.014 µM | > 400 µM | – | – | – | – | – |
| CC1(C)C(N)=N[C@]2(C)c3cc(Nc4ncccc4C#N)ccc3OCC[C@H]2S1(=O)=O [Example 7, 2-(((4aR,11bR)-2-amino-3,3,11b-trimethyl-4,4-dioxido-4a,5,6,11b-tetrahydro-3H-[1]benzoxepino[4,5-b][1,4]thiazin-10-yl)amino)-3-pyridinecarbonitrile] | – | – | – | – | 0.124 µM | 0.116 µM | 252 µM | – |
| CC1(C)C(N)=N[C@]2(C)c3cc(Nc4nccc5cc(C#N)cnc45)ccc3CCC[C@H]2S1(=O)=O [Example 47, 8-(((4aR,11bR)-2-amino-3,3,11b-trimethyl-4,4-dioxido-3,4a,5,6,7,11b-hexahydrobenzo[3,4]cyclohepta[1,2-b][1,4]thiazin-10-yl)amino)-1,7-naphthyridine-3-carbonitrile] | – | – | – | – | 0.042 µM | 0.008 µM | 338 µM | – |
| CC#C[C@@H](C)Oc1cnc(C(=O)Nc2ccc3c(c2)[C@@]2(C)N=C(N)C(C)(C)S(=O)(=O)[C@@H]2CCO3)cn1 [Example 16, N-((4aR,11bR)-2-amino-3,3,11b-trimethyl-4,4-dioxido-4a,5,6,11b-tetrahydro-3H-[1]benzoxepino[4,5-b][1,4]thiazin-10-yl)-5-(((1R)-1-methyl-2-butyn-1-yl)oxy)-2-pyrazinecarboxamide] | – | – | – | > 800 µM | 0.138 µM | 0.03 µM | 979 µM | – |
| Cc1c(C(=O)Nc2ccc3c(c2)[C@@]2(C)N=C(N)C(C)(C)S(=O)(=O)[C@@H]2CCC3)nc2ccc(Cl)cn12 [Example 49, N-((4aR,11bR)-2-amino-3,3,11b-trimethyl-4,4-dioxido-3,4a,5,6,7,11b-hexahydrobenzo[3,4]cyclohepta[1,2-b][1,4]thiazin-10-yl)-6-chloro-3-methylimidazo[1,2-a]pyridine-2-carboxamide] | – | – | – | – | 0.013 µM | 0.082 µM | 394 µM | – |
